Measured values published in patent US20050282889A1, “Intracorporeal medicaments for photodynamic treatment of disease” (priority 1996, published 2005).

Key:
[1] = Absorbance properties of halogenated xanthenes (λmax, α); type: physicochemical
Excerpt: Certain general properties of this class of agents are discussed in further detail in U.S. Ser. No. 09/130,041, filed on Aug. 6, 1998, U.S. Ser. No. 09/184,388, filed on Nov. 2, 1998, and U.S. Ser. No. 09/216,787, filed on Dec. 21, 1998, which are herein incorporated by reference in their entirety.

[2] = Photochemical quantum yields (triplet, singlet oxygen); type: physicochemical
renal adenocarcinoma [3] = experiment: Per oesophageal Rose Bengal plus 532 nm light, murine renal adenocarcinoma tumor model; type: in vivo, Balb C Nude (nu/nu) mice
BNL/SV40 Liver Cell = experiment: Intratumoral injection plus light, murine tumor model; type: in vivo; conditions: i.t. approx. 30 μL 10% solution, tumor 8 × 10 × 5 mm, 50 J/cm^2 532 nm
[4] = test system: Human Breast Adenocarcinoma (MCF-7); experiment: as above; type: in vivo; conditions: i.t. approx. 30 μL 10% solution, tumor 3 × 4 × 4 mm, 100 J/cm^2 532 nm
Renal Adenocarcinoma [5] = experiment: as above; type: in vivo; conditions: for No. Tumors Cured: 4 treated
[6] = test system: tumor cell suspensions (e.g. melanoma, breast tumor, liver tumor, renal carcinoma, gall bladder tumor or prostate tumor); experiment: Photodynamic treatment of subcutaneous primary tumors in nude mice; type: in vivo
[7] = Retention of agent after intratumoral or peritumoral injection; conditions: mouse, in vivo
Experimental: Initially, tumor cell suspensions (e.g. melanoma, breast tumor, liver tumor, renal carcinoma, gall bladder tumor or prostate tumor) were injected subcutaneously into the flanks of nude mice resulting in formation of primary tumors, within a few weeks, at the injection site having a volume of approximately 0.1 cm^3 to 0.5 cm^3.

cutaneous lipocytes = experiment: Systemic administration to obese mice: accumulation in and photodynamic destruction of cutaneous lipocytes; type: in vivo, obese laboratory mice
Excerpt: For example, Rose Bengal's relatively large partition coefficient is indicative of a preference for accumulation in lipophilic tissue, such as cutaneous lipocytes.

[8] = test system: procaryotic or eucaryotic cell cultures; experiment: Dark and light cytotoxicity in cell cultures; type: cell-based; conditions: concentrations equivalent to or greater than 100 mg/kg
Excerpt: Further, the inventors of the present invention have shown that these agents are readily cleared from healthy tissues in a matter of several hours and are known to be rapidly excreted in bile, urine and feces, without doing damage to those healthy tissues while it was there.

cutaneous tumors = experiment: Per oesophageal Rose Bengal plus green light, mice with cutaneous tumors; type: in vivo; conditions: approximately 10% W/V solution p.o.; green light 500-600 nm
esophageal tissue = experiment: Per oesophageal Rose Bengal plus green light on esophageal tissue; type: in vivo, canines; conditions: approximately 1.0% W/V solution p.o.; green light 500-600 nm
prostate tumor = experiment: Intratumoral Rose Bengal plus green light; type: in vivo; conditions: approximately 10% W/V solution i.t.; green light 500-600 nm
lung tumor = experiment: Intratumoral Rose Bengal plus green light; type: in vivo; conditions: approximately 10% W/V solution i.t.; green light 500-600 nm
metastatic breast tumor = experiment: Intratumoral Rose Bengal plus green light; type: in vivo; conditions: approximately 10% W/V solution i.t.; green light 500-600 nm
thyroid tumor = experiment: Intratumoral Rose Bengal plus green light; type: in vivo; conditions: approximately 10% W/V solution i.t.; green light 500-600 nm
[9] = Serum level after per oesophageal administration; type: in vivo; conditions: approximately 10% W/V solution p.o.
[10] = test system: antibiotic resistant Staphylococcus aureus; experiment: Photodynamic eradication of microbes; type: cell-based; conditions: aqueous solution approximately 1 to 10 micromolar; green light 500-600 nm
Escherichia coli = experiment: Photodynamic eradication of microbes; type: cell-based; conditions: aqueous solution approximately 1 to 10 micromolar; green light 500-600 nm
various yeasts = experiment: Photodynamic eradication of microbes; type: cell-based; conditions: aqueous solution approximately 1 to 10 micromolar; green light 500-600 nm
[11] = No Light control, 0 J/cm^2, i.t. 10% solution, tumor 2 × 3 × 3 mm
[12] = i.t. approx. 30 μL 10% solution, tumor 2 × 3 × 3 mm, 100 J/cm^2 532 nm
[13] = i.t. approx. 30 μL 10% solution, tumor 5 × 8 × 8 mm, 100 J/cm^2 532 nm

O=C1OC2(c3cc(I)c(O)c(I)c3Oc3c2cc(I)c(O)c3I)c2c(Cl)c(Cl)c(Cl)c(Cl)c21 [Rose Bengal, 4,5,6,7-tetrachloro-2′,4′,5′,7′-Tetraiodofluorescein]
α [1]: 100000 L/cm/mol
λmax (nm) EtOH ([1]; EtOH): 557 nm
λmax (nm) H2O ([1]; H2O): 547 nm
λmax (nm) MeOH ([1]; MeOH): 556 nm
φ (singlet oxygen) EtOH ([2]; EtOH): 0.75
φ (singlet oxygen) H2O ([2]; H2O): 0.86
φ (singlet oxygen) MeOH ([2]; MeOH): 0.76
φ (triplet) MeOH ([2]; MeOH): 0.76
Cure Rate (renal adenocarcinoma [3]; 10% solution p.o. approx. 50 mg/kg, 100 J/cm^2 532 nm, latency 3 hr): 60% (3/5)
No. Tumors With Positive Response (renal adenocarcinoma [3]; 10% solution p.o. approx. 50 mg/kg, 100 J/cm^2 532 nm, latency 3 hr, 5 tumors treated, eschar at tumor site 24 h after illumination): 3
Cure Rate (renal adenocarcinoma [3]; 10% solution p.o. approx. 50 mg/kg, 100 J/cm^2 532 nm, latency 20 hr): 78% (7/9)
No. Tumors With Positive Response (renal adenocarcinoma [3]; 10% solution p.o. approx. 50 mg/kg, 100 J/cm^2 532 nm, latency 20 hr, 9 tumors treated): 7
Cure Rate (renal adenocarcinoma [3]; No Light control, 0 J/cm^2, p.o. approx. 50 mg/kg): 0% (0/2)
No. Tumors With Positive Response (renal adenocarcinoma [3]; No Light control, 0 J/cm^2, p.o. approx. 50 mg/kg, 2 tumors treated): 0
Damage in peritumoral tissues (renal adenocarcinoma [3]; p.o. approx. 50 mg/kg, tumor and peritumoral area illuminated, 100 J/cm^2 532 nm): eschar formation selectively at the tumor site. No damage was noted in peritumoral tissues. “No Light” and
Cure Rate (BNL/SV40 Liver Cell): 25%
No. Tumors Cured (BNL/SV40 Liver Cell; 8 treated, reoccurrence at 2-3 weeks): 2
Cure Rate [4]: 100%
No. Tumors Cured ([4]; 2 treated): 2
Cure Rate (Renal Adenocarcinoma [5]; [11]): 0%
No. Tumors Cured (Renal Adenocarcinoma [5]; [11]): 0
Cure Rate (Renal Adenocarcinoma [5]; [12]): 100%
No. Tumors Cured (Renal Adenocarcinoma [5]; [12]): 4
Cure Rate (Renal Adenocarcinoma [5]; [13]): 50%
No. Tumors Cured (Renal Adenocarcinoma [5]; [13]): 2
Tumor response after p.o. administration and illumination ([6]; 10-30 μL of 10% solution (1-3 mg) p.o., 532 nm, 50-200 J/cm^2, 3-48 hours post administration): selective destruction of tumor tissue with no substantive effect in healthy surrounding tissue
Tumor response after intratumoral injection and illumination ([6]; i.t., similar formulation, light at 532 nm): selective tumor destruction
Injected dose remaining in the tumor [7]: more than 75%
Tissue localization after i.t. administration [7]: persistent accumulation and retention of Rose Bengal uniformly throughout the tumor volume
Tissue accumulation after systemic administration (cutaneous lipocytes; aqueous solution i.p. or p.o., cutaneous fat deposits of obese mice): highly selective accumulation
Photodynamic effect on lipocytes (cutaneous lipocytes; illumination of skin at approximately 532 nm after systemic administration): selective photodynamic destruction of such lipocytes with no effect in overlying skin or underlying muscle tissue
Light cytotoxicity: effect on cell cultures ([8]; light between about 500 nm and 600 nm): immediate and complete kill
Dark cytotoxicity: effect on viability of cultures ([8]; no illumination): no measurable effect on the viability
Tumor response (cutaneous tumors): substantial or complete photodynamic eradication
Tissue response in illuminated region (esophageal tissue): controlled, localized photodynamic destruction of tissues in the treated region
Tumor response (prostate tumor): controlled, localized photodynamic eradication
Tumor response (lung tumor): controlled, localized photodynamic eradication
Tumor response (metastatic breast tumor): controlled, localized photodynamic eradication
Tumor response (thyroid tumor): controlled, localized photodynamic eradication
Serum levels of Rose Bengal [9]: transient elevation of serum levels
Eradication of microbes [10]: substantial or complete eradication
Eradication of microbes (Escherichia coli): substantial or complete eradication
Eradication of microbes (various yeasts): substantial or complete eradication
